The values below come from publication PMC12670408, “Backbone Alterations in Cyclic Peptides Influence Both Membrane Permeability and Biological Activity” (Journal of Medicinal Chemistry, 2025).

Data set [1] has as its system U2OS cells. Nature of the data set: Cell painting assay (induction, cell count). It counts as cell-based. How it is done:
Therefore, we subjected our set of compounds to the cell painting assay that is agnostic toward specific biological targets. In our cell-painting setup, the compounds were tested at different concentrations (10, 30, and 50 μM) in U2OS cells followed by treatment with dyes for mitochondria (Mito Tracker Deep Red), endoplasmic reticulum (concanavalin-Alexa488 conjugate), actin, (Phalloidin-Alexa594 conjugate), DNA (Hoechst 33342), nucleoli and cytoplasmic RNA (SYTO 14), and Golgi and plasma membranes (WGA-Alexa594 conjugate). Next, the cells were imaged in various channels at 9 sites per well and a total of 579 morphological parameters were extracted. An induction score was calculated from this analysis, which represents the number of parameters for which the change was significant in comparison to the DMSO control.
The described assay follows closely the method described by Bray et al.
Initially, 5 μL U2OS medium were added to each well of a 384-well plate (Revvity PhenoPlate 384). Subsequently, U2OS cell were seeded with a density of 1600 cells per well in 20 μL medium. The plate was incubated for 10 min at ambient temperature, followed by an additional 4 h incubation (37 °C, 5% CO2). […] Incubation with compound was performed for 20 h (37 °C, 5% CO2). Subsequently, mitochondria were stained with Mito Tracker Deep Red (Thermo Fisher Scientific, Cat. No. M22426). The Mito Tracker Deep Red stock solution (1 mM) was diluted to a final concentration of 100 nM in prewarmed medium. The medium was removed from the plate leaving 10 μL residual volume and 25 μL of the Mito Tracker solution were added to each well. The plate was incubated for 30 min in darkness (37 °C, 5% CO2). To fix the cells 7 μL of 18.5% formaldehyde in PBS were added, resulting in a final formaldehyde concentration of […]. Subsequently, the plate was incubated for another 20 min in darkness (RT) and washed three times with 70 μL of PBS. (Agilent Washer Elx405). Cells were permeabilized by addition of 25 μL 0.1% Triton X-100 to each well, followed by 15 min incubation (RT) in darkness. The cells were washed three times with PBS leaving a final volume of 10 μL. To each well 25 μL of a staining solution were added, which contains 1% BSA, 5 μL/ml Phalloidin (Alexa594 conjugate, Thermo Fisher Scientific, A12381), 25 μg/mL Concanavalin A (Alexa488 conjugate, Thermo Fisher Scientific, Cat. No. C11252), 5 μg/mL Hoechst 33342 (Sigma, Cat. No. B2261–25 mg), 1.5 μg/mL WGA-Alexa594 conjugate (Thermo Fisher Scientific, Cat. No. W11262) and 1.5 μM SYTO 14 solution (Thermo Fisher Scientific, Cat. No. S7576). The plate is incubated for 30 min (RT) in darkness and washed three times with 70 μL PBS. After the final washing step, the PBS was not aspirated. The plates were sealed and centrifuged for 1 min at 50g.
The generated images were processed with the CellProfiler package (https://cellprofiler.org/, version 3.0.0) on a computing cluster of the Max Planck Society to extract 1716 cell features per microscope site. The data was then further aggregated as medians per well (9 sites → 1 well), then over the three replicates.
From the total set of 1716 features, a subset of highly reproducible and robust features was determined using the procedure described by Woehrmann et al. in the following way: Two biological repeats of one plate containing reference compounds were analyzed. For every feature, its full profile over each whole plate was calculated.
The phenotypic profiles were compiled from the Z-scores of all individual cellular features, where the Z-score is a measure of how far away a data point is from a median value.

The conditions of data set [2]: cited from earlier work.
Data set [3] is described as follows: CHI-IAM chromatography (immobilized artificial membrane). Format: physicochemical. The conditions noted are these: IAM.PC.DD2 column, ammonium acetate buffer pH 7.4. From the text: With all peptides in hand we first set out to estimate their passive membrane permeability using the immobilized artificial membrane (IAM) chromatography technique. , An IAM column is packed with a reverse phase like material modified with phospholipids to mimic a cellular membrane. After analysis of a compound its retention time is compared to a set of calibration compounds to yield a CHI-IAM value. A higher value indicates a stronger membrane interaction, which can be correlated to passive membrane permeability.
CHI-IAM chromatography was carried out on an Agilent 1200 Series LC (Agilent Technologies, USA) equipped with a 4.6 mm × 100 mm to 150 mm IAM.PC.DD2 column from Regis Technologies, Inc., eluting at 1.5 mL/min, eluting over a gradient of 0% – 85% MeCN with a 50 mM ammonium acetate buffer adjusted to pH 7.4 over 4.75 min.

Data set [4] in a line: H-D exchange NMR. It counts as physicochemical. The conditions noted are these: 20% D2O and 80% DMSO-d6. From the text:
To further confirm the solvent accessibility of the amides we performed H-D exchange experiments using SA-A1, SA-B1, and SA-B3 by adding 20% D2O to samples dissolved in DMSO-d 6 (Table and Figures S10–S12). The rate of exchange of the amide proton for deuterium is an indicator of solvent accessibility. […] In line with their observations, the Ala-1 NH exchanges rather fast in SA-A1, which is in stark contrast to Ala-1 in SA-B1 and SA-B3 where it is fully stable. […] The Ile-4 amide is always strongly shielded which is in line with it being involved in a stable hydrogen bond with the Ala-1 carbonyl group as for SA-A1. […] Unfortunately, for SA-B3 this peak overlapped with aromatic peaks prohibiting quantification.
The samples were dissolved in DMSO-d 6 and 20% D2O was added. Immediately after ^1H NMR data was collected at 0, 10, 20, 30, and 240 min. The peak area was normalized to a peak of constant height.

On the set-up of data set [5]: method as in Fairlie group. The note with it: ref Fairlie group; cited from earlier work.
On the set-up of data set [6]: method as in Nielsen et al. The conditions noted are these: D2O (10%)/DMSO-d6 (90%), value in brackets, ref Nielsen et al.; cited from earlier work.
Data set [7] is described as follows: Variable-temperature 1H-NMR of amide protons. Format: physicochemical. How it is done: The solvent exposure of peptide backbone NH groups can be studied using variable temperature ^1H-NMR experiments, where the change in chemical shift of the amide protons is observed upon increasing temperature. […] These experiments were performed for compounds SA-A1, SA-B1, SA-B2, and SA-B3 in both DMSO-d6, as a mimic of a polar environment, and CDCl3, as a mimic of the hydrophobic membrane environment (Figures S2–S9, and Tables and ). […] For SA-B3 the Ile-6 amide was also more exposed to solvent, but the change in Phe-2 shift was much smaller.
Variable-temperature nuclear magnetic resonance (VT-NMR) measurements were conducted using a Bruker Avance Neo 600 (av600) spectrometer equipped with a CP2.1 TMO 600 S3 cryoprobe. The ^1H NMR data was collected over a temperature range from 293.15 to 323.15 K, with temperature increments of 5 °C.

The mark [8] stands for this setting: CDCl3, value in brackets, ref Bockus et al.
Where [9] appears, read: DMSO-d6, value in brackets, ref Nielsen et al.

Molecules are shown by their SMILES. Read-outs that look alike come from different tables or passages of the source. Numbered stars: 1 amine (or outer) side, 2 acyl side, 3 side chain; on linkers, the order of the positions; unused ones are H or OH. Square brackets hold non-standard residues; d marks the D form. Peptide text beside a SMILES is read from it. Ile(ψThz) = CC[C@H](C)[C@H](N[*:1])c1nc(C(=O)[*:2])cs1 Some results are limits rather than exact numbers.

Take `CC[C@H](C)[C@@H]1NC(=O)[C@@H]2CCCN2C(=O)[C@H](Cc2ccccc2)NC(=O)[C@H](C)NC(=O)c2csc(n2)[C@H]([C@@H](C)CC)NC(=O)[C@@H]2CCCN2C1=O` [SA-A1, Sanguinamide A] (cyclo(AFPIP[Ile(ψThz)])): in data set [1], the “Cell count at 10 μM” value was 103%, the “Induction at 10 μM” value is given as 1.4%, the “Cell count at 30 μM” value turned out to be 97% and the “Induction at 30 μM” value was found to be 32.6%. In addition, in data set [1], the “Cell count at 50 μM” value is 88% and the “Induction at 50 μM” value is on record as 29.7%. Moreover, in data set [2] (setting [8]), the “ΔδNH/ΔT Ala-1” value is given as 0.1 ppb/K, the “ΔδNH/ΔT Ile-4” value was −3.1 ppb/K, the “ΔδNH/ΔT Ile-6” value is listed as −3.1 ppb/K and the “ΔδNH/ΔT Phe-2” value is recorded as −9.1 ppb/K. Further, in data set [2] (setting [9]), the “ΔδNH/ΔT Ala-1” value is given as 0.4 ppb/K, the “ΔδNH/ΔT Ile-4” value is on record as −1.5 ppb/K, the “ΔδNH/ΔT Ile-6” value is listed as −4.0 ppb/K and the “ΔδNH/ΔT Phe-2” value is on record as −4.2 ppb/K. In addition, the CHI-IAM in data set [3] is recorded as 39.71 ± 0.16. Moreover, in data set [4], the “H-D exchange rate Ala-1” value amounted to 57 min, the “H-D exchange rate Ile-4” value is greater than 240 min, the “H-D exchange rate Ile-6” value was 341 min and the “H-D exchange rate Phe-2” value came out at 48 min. In addition, the “bioavailability (F)” value in data set [5] was 7%. Further, in data set [6], the “H-D exchange rate Ala-1” value was 188 min, the “H-D exchange rate Ile-4” value was 6000 min, the “H-D exchange rate Ile-6” value is 1500 min and the “H-D exchange rate Phe-2” value was 380 min. Besides, in data set [7] (CDCl3), the “ΔδNH/ΔT Ala-1” value is recorded as “–0.1 ppb/K”, the “ΔδNH/ΔT Ile-4” value is “–3.5 ppb/K”, the “ΔδNH/ΔT Ile-6” value is given as “–3.6 ppb/K” and the “ΔδNH/ΔT Phe-2” value is on record as “–10.2 ppb/K”. For the same molecule, in data set [7] (DMSO-d6), the “ΔδNH/ΔT Ala-1” value was “–0.4 ppb/K”, the “ΔδNH/ΔT Ile-4” value is “–1.7 ppb/K”, the “ΔδNH/ΔT Ile-6” value was “–3.8 ppb/K” and the “ΔδNH/ΔT Phe-2” value is on record as “–4.2 ppb/K”.

Take `CC[C@H](C)[C@@H]1NC(=O)[C@@H]2CCCN2C(=O)[C@H]([C@@H](C)CC)NC(=O)[C@@H]2CCCN2C(=O)[C@H](Cc2ccccc2)NC(=O)[C@H](C)NC(=O)[C@H](CS)NC1=O` [SA-A3] (cyclo(AFPIPIC)): in data set [1], the “Cell count at 10 μM” value is reported as 102%, the “Induction at 10 μM” value is given as 0.7%, the “Cell count at 30 μM” value worked out at 102% and the “Induction at 30 μM” value is 1%. In addition, in data set [1], the “Cell count at 50 μM” value is listed as 98% and the “Induction at 50 μM” value amounted to 1%. Moreover, the CHI-IAM in data set [3] amounted to 33.97 ± 0.13.
